From US8507251B2, “Medium and method for culturing Mycobacterium avium subspecies paratuberculosis” (priority 2009, dated 2013)
Values joined by “and” are separate entries in the source; they are usually repeats but may differ in a detail not shown here. Equal values may be shown once. Read-outs that look alike come from different tables or passages of the source.

Assays:
[1] = test system: MAP strain Dominic (ATCC 43545); assay: radiometric 14CO2 BACTEC 460 growth culture, MAP Dominic; format: cell-based, Mycobacterium avium subspecies paratuberculosis
[2] = test system: MAP strain UCF-4; assay: radiometric 14CO2 BACTEC 460 growth culture, MAP UCF-4; format: cell-based, Mycobacterium avium subspecies paratuberculosis
[3] = test system: MAP ATCC 19698; assay: radiometric 14CO2 BACTEC 460 growth culture, MAP 19698; format: cell-based, Mycobacterium avium subspecies paratuberculosis
[4] = test system: MAP 303; assay: radiometric 14CO2 BACTEC 460 growth culture, MAP 303; format: cell-based, Mycobacterium avium subspecies paratuberculosis
[5] = test system: M. avium ATCC 25291; assay: radiometric 14CO2 BACTEC 460 growth culture, M. avium 25291; format: cell-based, M. avium subspecies avium; settings: for effect on growth (in words): at the doses tested
[6] = test system: M. avium 101; assay: radiometric 14CO2 BACTEC 460 growth culture, M. avium 101; format: cell-based, M. avium subspecies avium
[7] = test system: Bacillus Callmette Guerin (BCG) M. bovis Karlson & Lessel (ATCC 19015); format: cell-based; settings: at the doses tested
[8] = test system: avirulent M. tb strain ATCC 25177; format: cell-based, M. tuberculosis
[9] = 1 μg/ml, first of the two values (two experiments)
[10] = 1 μg/ml, second of the two values (two experiments)
[11] = 4 μg/ml, first of the two values (two experiments)
[12] = 4 μg/ml, second of the two values (two experiments)
[13] = 16 μg/ml, first of the two values (two experiments)
[14] = 16 μg/ml, second of the two values (two experiments)
[15] = 64 μg/ml, first of the two values (two experiments)
[16] = 64 μg/ml, second of the two values (two experiments)

Structure (SMILES): O=C(O)c1cccnc1 [Nicotinic acid, nicotinic acid]
- percent change from control cGI (% ΔcGI / % −ΔcGI) [1, 9]: 46%
- percent change from control cGI (% ΔcGI / % −ΔcGI) [1, 10]: 71%
- percent change from control cGI (% ΔcGI / % −ΔcGI) [1, 11]: 133%
- percent change from control cGI (% ΔcGI / % −ΔcGI) [1, 12]: 181%
- percent change from control cGI (% ΔcGI / % −ΔcGI) [1, 13]: 195%
- percent change from control cGI (% ΔcGI / % −ΔcGI) [1, 14]: 198%
- percent change from control cGI (% ΔcGI / % −ΔcGI) [1, 15]: 197%
- percent change from control cGI (% ΔcGI / % −ΔcGI) [1, 16]: 225%
- percent change from control cGI (% ΔcGI / % −ΔcGI) ([2]; 1 μg/ml): 48%
- percent change from control cGI (% ΔcGI / % −ΔcGI) ([2]; 4 μg/ml): 63%
- percent change from control cGI (% ΔcGI / % −ΔcGI) ([2]; 16 μg/ml): 101%
- percent change from control cGI (% ΔcGI / % −ΔcGI) ([2]; 64 μg/ml): 92%
- percent change from control cGI (% ΔcGI / % −ΔcGI) ([2]; 64 μg/ml, listed as nicotinic acid): 92%
- percent change from control cGI (% ΔcGI / % −ΔcGI) ([3]; 1 μg/ml): −17%
- percent change from control cGI (% ΔcGI / % −ΔcGI) ([3]; 4 μg/ml): −4%
- percent change from control cGI (% ΔcGI / % −ΔcGI) ([3]; 16 μg/ml): 12%
- percent change from control cGI (% ΔcGI / % −ΔcGI) ([3]; 64 μg/ml): 30%
- effect on growth (in words) ([3]; at the doses tested): far less nicotinic acid induced enhancement
- percent change from control cGI (% ΔcGI / % −ΔcGI) ([4]; 1 μg/ml): −4%
- percent change from control cGI (% ΔcGI / % −ΔcGI) ([4]; 4 μg/ml): 2%
- percent change from control cGI (% ΔcGI / % −ΔcGI) ([4]; 16 μg/ml): −4%
- percent change from control cGI (% ΔcGI / % −ΔcGI) ([4]; 64 μg/ml): 22%
- effect on growth (in words) ([4]; at the doses tested): far less nicotinic acid induced enhancement
- percent change from control cGI (% ΔcGI / % −ΔcGI) ([5]; 1 μg/ml): 98%
- percent change from control cGI (% ΔcGI / % −ΔcGI) ([5]; 4 μg/ml): 170%
- percent change from control cGI (% ΔcGI / % −ΔcGI) ([5]; 16 μg/ml): 167%
- percent change from control cGI (% ΔcGI / % −ΔcGI) ([5]; 64 μg/ml): 175%
- effect on growth (in words) [5]: enhanced growth
- percent change from control cGI (% ΔcGI / % −ΔcGI) ([6]; 1 μg/ml): 41%
- percent change from control cGI (% ΔcGI / % −ΔcGI) ([6]; 4 μg/ml): 47%
- percent change from control cGI (% ΔcGI / % −ΔcGI) ([6]; 16 μg/ml): 40%
- percent change from control cGI (% ΔcGI / % −ΔcGI) ([6]; 64 μg/ml): 56%
- effect on growth (in words) ([6]; at the doses tested): enhanced growth

Structure (SMILES): NC(=O)c1cccnc1 [Nicotinamide, nicotinamide]
- percent change from control cGI (% ΔcGI / % −ΔcGI) ([1]; 0.1 μg/ml, second value printed in Table 4): 32%
- percent change from control cGI (% ΔcGI / % −ΔcGI) ([1]; 0.4 μg/ml, second value printed in Table 4): 98%
- percent change from control cGI (% ΔcGI / % −ΔcGI) [1, 9]: 110%
- percent change from control cGI (% ΔcGI / % −ΔcGI) ([1]; 1.6 μg/ml, second value printed in Table 4): 156%
- percent change from control cGI (% ΔcGI / % −ΔcGI) [1, 11]: 115%
- percent change from control cGI (% ΔcGI / % −ΔcGI) ([1]; 6.4 μg/ml, second value printed in Table 4): 156%
- percent change from control cGI (% ΔcGI / % −ΔcGI) [1, 13]: 125%
- percent change from control cGI (% ΔcGI / % −ΔcGI) [1, 15]: 106%
- effect on growth (in words) ([1]; at the doses tested): enhanced
- percent increase from control cGI (%+ΔcGI) ([1]; for 1, 4, 16 and 64 μg/ml, first experiment): ≥ 100%
- percent change from control cGI (% ΔcGI / % −ΔcGI) ([2]; 0.1 μg/ml): 20%
- percent change from control cGI (% ΔcGI / % −ΔcGI) ([2]; 0.4 μg/ml): 52%
- percent change from control cGI (% ΔcGI / % −ΔcGI) ([2]; 1.6 μg/ml): 73%
- percent change from control cGI (% ΔcGI / % −ΔcGI) ([2]; 6.4 μg/ml): 79%
- effect on growth (in words) ([2]; at the doses tested): enhanced
- percent change from control cGI (% ΔcGI / % −ΔcGI) ([3]; 0.1 μg/ml): −6%
- percent change from control cGI (% ΔcGI / % −ΔcGI) ([3]; 0.4 μg/ml): −2%
- percent change from control cGI (% ΔcGI / % −ΔcGI) ([3]; 1.6 μg/ml): −8%
- percent change from control cGI (% ΔcGI / % −ΔcGI) ([3]; 6.4 μg/ml): −7%
- effect on growth (in words) ([3]; at the doses tested): no effect
- percent change from control cGI (% ΔcGI / % −ΔcGI) ([4]; 0.1 μg/ml): −5%
- percent change from control cGI (% ΔcGI / % −ΔcGI) ([4]; 0.4 μg/ml): −28%
- percent change from control cGI (% ΔcGI / % −ΔcGI) ([4]; 1.6 μg/ml): 11%
- percent change from control cGI (% ΔcGI / % −ΔcGI) ([4]; 6.4 μg/ml): 3%
- effect on growth (in words) ([4]; at the doses tested): no effect
- percent change from control cGI (% ΔcGI / % −ΔcGI) ([5]; 0.1 μg/ml): 23%
- percent change from control cGI (% ΔcGI / % −ΔcGI) ([5]; 0.4 μg/ml): 105%
- percent change from control cGI (% ΔcGI / % −ΔcGI) ([5]; 1.6 μg/ml): 157%
- percent change from control cGI (% ΔcGI / % −ΔcGI) ([5]; 6.4 μg/ml): 144%
- effect on growth (in words) [5]: caused enhancement of growth
- percent change from control cGI (% ΔcGI / % −ΔcGI) ([6]; 0.1 μg/ml): 6%
- percent change from control cGI (% ΔcGI / % −ΔcGI) ([6]; 0.4 μg/ml): −21%
- percent change from control cGI (% ΔcGI / % −ΔcGI) ([6]; 1.6 μg/ml): 7%
- percent change from control cGI (% ΔcGI / % −ΔcGI) ([6]; 6.4 μg/ml): 58%
- effect on growth (in words) ([6]; at the doses tested): caused enhancement of growth
- effect on growth (in words) [7]: no effect
- effect on growth (in words) [8]: no effect

Structure (SMILES): NC(=O)c1ccc[n+]([C@H]2O[C@H](COP(=O)([O-])OP(=O)(O)OC[C@H]3O[C@@H](n4cnc5c(N)ncnc54)[C@H](O)[C@@H]3O)[C@@H](O)[C@H]2O)c1 [α-NAD, α-nicotinamide adenine dinucleotide]
- percent change from control cGI (% ΔcGI / % −ΔcGI) [1, 9]: 25%
- percent change from control cGI (% ΔcGI / % −ΔcGI) [1, 10]: −16%
- percent change from control cGI (% ΔcGI / % −ΔcGI) [1, 11]: 79%
- percent change from control cGI (% ΔcGI / % −ΔcGI) [1, 12]: 35%
- percent change from control cGI (% ΔcGI / % −ΔcGI) [1, 13]: 104%
- percent change from control cGI (% ΔcGI / % −ΔcGI) [1, 14]: 78%
- percent change from control cGI (% ΔcGI / % −ΔcGI) [1, 15]: 135%
- percent change from control cGI (% ΔcGI / % −ΔcGI) [1, 16]: 115%
- percent change from control cGI (% ΔcGI / % −ΔcGI) ([2]; 1 μg/ml): 18%
- percent change from control cGI (% ΔcGI / % −ΔcGI) ([2]; 4 μg/ml): 35%
- percent change from control cGI (% ΔcGI / % −ΔcGI) ([2]; 16 μg/ml): 65%
- percent change from control cGI (% ΔcGI / % −ΔcGI) ([2]; 64 μg/ml): 81%
- effect on growth (in words) [3]: little or no effect
- percent change from control cGI (% ΔcGI / % −ΔcGI) ([3]; 1 μg/ml): −16%
- percent change from control cGI (% ΔcGI / % −ΔcGI) ([3]; 4 μg/ml): −6%
- percent change from control cGI (% ΔcGI / % −ΔcGI) ([3]; 16 μg/ml): −17%
- percent change from control cGI (% ΔcGI / % −ΔcGI) ([3]; 64 μg/ml): 13%
- effect on growth (in words) [4]: little or no effect
- percent change from control cGI (% ΔcGI / % −ΔcGI) ([4]; 1 μg/ml): 8%
- percent change from control cGI (% ΔcGI / % −ΔcGI) ([4]; 4 μg/ml): 9%
- percent change from control cGI (% ΔcGI / % −ΔcGI) ([4]; 16 μg/ml): −8%
- percent change from control cGI (% ΔcGI / % −ΔcGI) ([4]; 64 μg/ml): −18%
- percent change from control cGI (% ΔcGI / % −ΔcGI) ([5]; 1 μg/ml): −2%
- percent change from control cGI (% ΔcGI / % −ΔcGI) ([5]; 4 μg/ml): 160%
- percent change from control cGI (% ΔcGI / % −ΔcGI) ([5]; 16 μg/ml): 131%
- percent change from control cGI (% ΔcGI / % −ΔcGI) ([5]; 64 μg/ml): 147%
- effect on growth (in words) [6]: little or no effect
- percent change from control cGI (% ΔcGI / % −ΔcGI) ([6]; 1 μg/ml): 39%
- percent change from control cGI (% ΔcGI / % −ΔcGI) ([6]; 4 μg/ml): −15%
- percent change from control cGI (% ΔcGI / % −ΔcGI) ([6]; 16 μg/ml): −21%
- percent change from control cGI (% ΔcGI / % −ΔcGI) ([6]; 64 μg/ml): −14%
- effect on growth (in words) [7]: little or no effect
- effect on growth (in words) [8]: little or no effect
- percent change from control cGI (% ΔcGI / % −ΔcGI) [8]: 2% and −6% and −1% and 0%
